Test results reported in PubChem BioAssay (NCI).
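Growth conditions: 96-well plates. Treatment: test compound, 48 hours, 5 concentrations. Analysis: linear interpolation between bracketing concentrations; unreached endpoints set to highest concentration. The concentration for 50% growth inhibition is given as GI50. At the TGI there is no net growth.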

Tests used:
Experiment in all cases: NCI-60 cell line screen, 48 h
[1] = system: PC-3 prostate
[2] = system: HOP-62 NSCLC
[3] = system: SF-539 CNS
[4] = system: OVCAR-8 ovarian
[5] = system: RPMI-8226 leukemia
[6] = system: UO-31 renal
[7] = system: EKVX NSCLC
[8] = system: T-47D breast
[9] = system: TK-10 renal
[10] = system: SK-MEL-5 melanoma
[11] = system: HOP-92 NSCLC
[12] = system: SNB-75 CNS
[13] = system: SF-295 CNS
[14] = system: MDA-MB-435
[15] = system: MALME-3M melanoma
[16] = system: SF-268 CNS
[17] = system: UACC-257 melanoma
[18] = system: OVCAR-4 ovarian
[19] = system: M14 melanoma
[20] = system: COLO 205 colon
[21] = system: A498 renal
[22] = system: NCI-H522 lung
[23] = system: UACC-62 melanoma
[24] = system: K-562 leukemia
[25] = system: MDA-MB-231 breast
[26] = system: A549 NSCLC
[27] = system: CCRF-CEM leukemia
[28] = system: NCI-H23 lung
[29] = system: MOLT-4 leukemia
[30] = system: ACHN renal
[31] = system: CAKI-1 renal
[32] = system: HL-60(TB) leukemia
[33] = system: SK-MEL-28 melanoma
[34] = system: 786-0 renal
[35] = system: HT29 colon
[36] = system: HCT-116 colon
[37] = system: RXF 393 renal
[38] = system: HCC-2998 colon
[39] = system: BT-549 breast
[40] = system: SK-OV-3 ovarian
[41] = system: U251 CNS
[42] = system: SK-MEL-2 melanoma
[43] = system: NCI-H460 lung
[44] = system: SN12C renal
[45] = system: OVCAR-5 ovarian
[46] = system: SNB-19 CNS
[47] = system: HCT-15 colon
[48] = system: IGROV1 ovarian
[49] = system: NCI-H226 lung
[50] = system: OVCAR-3 ovarian
[51] = system: HS 578T breast
[52] = system: SR leukemia
[53] = system: MCF7 breast
[54] = system: KM12 colon
[55] = system: SW-620 colon
[56] = system: DU-145 prostate
[57] = system: LOX IMVI melanoma
[58] = system: NCI/ADR-RES ovarian

`O=S1CCN(Cc2ccc(-c3ccc4ncnc(Nc5ccc(OCc6cccc(F)c6)c(Cl)c5)c4c3)o2)CC1` was tested, and the GI50 [1] was 8.91 µM, the TGI [1] was > 25 µM and the GI50 [2] was 14.8 µM. For the same compound, the TGI [2] was > 25 µM, the GI50 [3] was 6.54 µM and the TGI [3] was > 20.9 µM. The GI50 [4] was 7.68 µM, the TGI [4] was > 25 µM and the GI50 [5] was 6.65 µM. For the same compound, the TGI [5] was > 22.8 µM, the GI50 [6] was 0.473 µM and the TGI [6] was 24.9 µM. For the same compound, the GI50 [7] was 0.0304 µM, the TGI [7] was > 25 µM and the GI50 [8] was 1.95 µM. The TGI [8] was 18.3 µM, the GI50 [9] was 0.00776 µM and the TGI [9] was > 16.3 µM. For the same compound, the GI50 [10] was 3.09 µM, the TGI [10] was 6.42 µM and the GI50 [11] was 3.95 µM. The TGI [11] was 22.4 µM, the GI50 [12] was 7.92 µM and the TGI [12] was > 25 µM. For the same compound, the GI50 [13] was 5.83 µM, the TGI [13] was > 19 µM and the GI50 [14] was 7.1 µM. For the same compound, the TGI [14] was > 25 µM, the GI50 [15] was 6.01 µM and the TGI [15] was 23.2 µM. For the same compound, the GI50 [16] was 8.56 µM, the TGI [16] was > 25 µM and the GI50 [17] was 5.43 µM. The TGI [17] was > 20.5 µM, the GI50 [18] was 5.26 µM and the TGI [18] was > 25 µM. For the same compound, the GI50 [19] was 5.84 µM, the TGI [19] was > 18.6 µM and the GI50 [20] was 4.77 µM. For the same compound, the TGI [20] was 13.5 µM, the GI50 [21] was 0.862 µM and the TGI [21] was > 16.7 µM. For the same compound, the GI50 [22] was 0.647 µM, the TGI [22] was 15.8 µM and the GI50 [23] was 4.12 µM. The TGI [23] was 10.6 µM, the GI50 [24] was 6.53 µM and the TGI [24] was > 25 µM. The GI50 [25] was 5.19 µM, the TGI [25] was > 16.1 µM and the GI50 [26] was 5.92 µM. The TGI [26] was > 25 µM, the GI50 [27] was 6.89 µM and the TGI [27] was 24.8 µM. The GI50 [28] was 8.42 µM, the TGI [28] was > 25 µM and the GI50 [29] was 4.94 µM. The TGI [29] was > 20.1 µM, the GI50 [30] was 0.082 µM and the TGI [30] was > 25 µM. For the same compound, the GI50 [31] was 0.041 µM, the TGI [31] was > 25 µM and the GI50 [32] was 6.3 µM. For the same compound, the TGI [32] was 15.7 µM, the GI50 [33] was 5.75 µM and the TGI [33] was > 25 µM. The GI50 [34] was 6.54 µM, the TGI [34] was > 25 µM and the GI50 [35] was 4.22 µM. The TGI [35] was 10.8 µM, the GI50 [36] was 8.66 µM and the TGI [36] was > 25 µM. For the same compound, the GI50 [37] was 3.85 µM, the TGI [37] was > 23.6 µM and the GI50 [38] was 5.34 µM. The TGI [38] was 14.7 µM, the GI50 [39] was 6.2 µM and the TGI [39] was > 23.9 µM. For the same compound, the GI50 [40] was 0.00587 µM, the TGI [40] was > 25 µM and the GI50 [41] was 9.4 µM. The TGI [41] was > 25 µM, the GI50 [42] was 4.41 µM and the TGI [42] was 9.97 µM. The GI50 [43] was 7.62 µM, the TGI [43] was > 25 µM and the GI50 [44] was 7.77 µM. For the same compound, the TGI [44] was > 25 µM, the GI50 [45] was 5.8 µM and the TGI [45] was > 25 µM. The GI50 [46] was > 7.82 µM, the TGI [46] was > 25 µM and the GI50 [47] was 5.77 µM. The TGI [47] was > 25 µM, the GI50 [48] was 0.226 µM and the TGI [48] was 5.29 µM. The GI50 [49] was 4.4 µM, the TGI [49] was > 25 µM and the GI50 [50] was 4.86 µM. For the same compound, the TGI [50] was > 25 µM, the GI50 [51] was 4.63 µM and the TGI [51] was > 21.6 µM. The GI50 [52] was 5.38 µM, the TGI [52] was 17.5 µM and the GI50 [53] was 6.1 µM. For the same compound, the TGI [53] was > 25 µM, the GI50 [54] was 6.72 µM and the TGI [54] was > 22.8 µM. For the same compound, the GI50 [55] was 7.34 µM, the TGI [55] was > 25 µM and the GI50 [56] was 4.26 µM. For the same compound, the TGI [56] was > 25 µM, the GI50 [57] was 4.65 µM and the TGI [57] was 10.5 µM. For the same compound, the GI50 [58] was 4.82 µM and the TGI [58] was > 25 µM.
